Legend:
[1] = molecular target: T1, Ephrin type-B receptor 4 (Homo sapiens) (UniProt P54760); assay: Selectivity interaction (Millipore kinase profiler) EUB0000124b EPHB4; details: at 10 µM
T1 sequence (whole entry): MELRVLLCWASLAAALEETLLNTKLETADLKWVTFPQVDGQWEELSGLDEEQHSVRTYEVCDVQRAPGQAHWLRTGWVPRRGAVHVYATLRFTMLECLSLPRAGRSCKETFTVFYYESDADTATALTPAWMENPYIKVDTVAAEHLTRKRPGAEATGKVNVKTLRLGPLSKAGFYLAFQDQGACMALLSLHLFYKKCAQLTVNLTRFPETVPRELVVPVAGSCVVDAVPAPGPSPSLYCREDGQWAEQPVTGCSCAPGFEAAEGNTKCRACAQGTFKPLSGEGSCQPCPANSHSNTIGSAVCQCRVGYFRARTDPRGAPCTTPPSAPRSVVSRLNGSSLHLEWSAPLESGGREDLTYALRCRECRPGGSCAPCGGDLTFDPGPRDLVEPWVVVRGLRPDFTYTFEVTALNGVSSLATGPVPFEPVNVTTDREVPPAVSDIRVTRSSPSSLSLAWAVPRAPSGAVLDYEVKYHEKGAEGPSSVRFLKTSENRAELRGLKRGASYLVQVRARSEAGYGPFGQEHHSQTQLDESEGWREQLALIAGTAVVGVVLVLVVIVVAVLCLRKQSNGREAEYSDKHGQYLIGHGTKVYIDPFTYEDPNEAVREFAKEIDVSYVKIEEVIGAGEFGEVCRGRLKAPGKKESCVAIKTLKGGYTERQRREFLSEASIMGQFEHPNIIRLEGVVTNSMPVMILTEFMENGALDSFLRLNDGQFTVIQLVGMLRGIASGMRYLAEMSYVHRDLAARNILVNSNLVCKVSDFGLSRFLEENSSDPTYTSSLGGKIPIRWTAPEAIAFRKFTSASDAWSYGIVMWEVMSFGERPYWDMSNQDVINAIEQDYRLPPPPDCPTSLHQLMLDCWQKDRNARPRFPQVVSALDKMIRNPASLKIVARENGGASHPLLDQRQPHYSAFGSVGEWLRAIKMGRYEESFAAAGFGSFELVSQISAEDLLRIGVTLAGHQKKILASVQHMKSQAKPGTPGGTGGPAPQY

[2] = molecular target: T2, Dual specificity mitogen-activated protein kinase kinase 7 (Homo sapiens) (UniProt O14733); assay: Selectivity interaction (Millipore kinase profiler) EUB0000124b MAP2K7; details: at 10 µM
T2 sequence (whole entry): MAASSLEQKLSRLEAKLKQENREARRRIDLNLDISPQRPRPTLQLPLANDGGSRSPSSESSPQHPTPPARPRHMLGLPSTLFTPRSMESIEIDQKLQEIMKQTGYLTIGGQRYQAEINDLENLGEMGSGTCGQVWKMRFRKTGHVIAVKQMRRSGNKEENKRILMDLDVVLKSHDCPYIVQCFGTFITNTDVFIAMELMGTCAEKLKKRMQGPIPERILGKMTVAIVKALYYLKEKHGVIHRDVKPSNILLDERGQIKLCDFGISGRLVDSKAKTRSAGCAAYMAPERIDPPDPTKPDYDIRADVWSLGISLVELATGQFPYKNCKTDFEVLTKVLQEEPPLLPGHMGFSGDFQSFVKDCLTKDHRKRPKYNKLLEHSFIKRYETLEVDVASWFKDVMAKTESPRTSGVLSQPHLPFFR

[3] = molecular target: Death-associated protein kinase 1 (Homo sapiens, UniProt P53355); assay: Selectivity interaction (Kinase screening (Nanosyn)) EUB0000604a DAPK1
[4] = molecular target: T3, Dual specificity mitogen-activated protein kinase kinase 3 (Homo sapiens) (UniProt P46734); assay: Selectivity interaction (ActivX KiNativ screen (kinase selectivity in THP-1 cell lysates)) EUB0000639a MAP2K3; assay type: subcellular; details: lysate, at 5 µM
T3 sequence (whole entry): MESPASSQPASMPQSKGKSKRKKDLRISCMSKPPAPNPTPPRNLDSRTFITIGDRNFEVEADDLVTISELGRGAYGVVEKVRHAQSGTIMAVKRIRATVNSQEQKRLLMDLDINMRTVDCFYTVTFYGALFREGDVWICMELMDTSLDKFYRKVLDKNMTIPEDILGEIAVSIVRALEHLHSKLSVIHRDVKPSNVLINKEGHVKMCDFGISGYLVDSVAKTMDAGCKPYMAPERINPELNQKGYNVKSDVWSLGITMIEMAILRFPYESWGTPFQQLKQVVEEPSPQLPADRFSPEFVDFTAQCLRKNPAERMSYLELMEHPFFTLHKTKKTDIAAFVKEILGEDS

[5] = molecular target: T4, Serine/threonine-protein kinase Nek9 (Homo sapiens) (UniProt Q8TD19); assay: Selectivity interaction (ActivX KiNativ screen (kinase selectivity in THP-1 cell lysates)) EUB0000639a NEK9; assay type: subcellular; details: lysate, at 5 µM
T4 sequence (whole entry): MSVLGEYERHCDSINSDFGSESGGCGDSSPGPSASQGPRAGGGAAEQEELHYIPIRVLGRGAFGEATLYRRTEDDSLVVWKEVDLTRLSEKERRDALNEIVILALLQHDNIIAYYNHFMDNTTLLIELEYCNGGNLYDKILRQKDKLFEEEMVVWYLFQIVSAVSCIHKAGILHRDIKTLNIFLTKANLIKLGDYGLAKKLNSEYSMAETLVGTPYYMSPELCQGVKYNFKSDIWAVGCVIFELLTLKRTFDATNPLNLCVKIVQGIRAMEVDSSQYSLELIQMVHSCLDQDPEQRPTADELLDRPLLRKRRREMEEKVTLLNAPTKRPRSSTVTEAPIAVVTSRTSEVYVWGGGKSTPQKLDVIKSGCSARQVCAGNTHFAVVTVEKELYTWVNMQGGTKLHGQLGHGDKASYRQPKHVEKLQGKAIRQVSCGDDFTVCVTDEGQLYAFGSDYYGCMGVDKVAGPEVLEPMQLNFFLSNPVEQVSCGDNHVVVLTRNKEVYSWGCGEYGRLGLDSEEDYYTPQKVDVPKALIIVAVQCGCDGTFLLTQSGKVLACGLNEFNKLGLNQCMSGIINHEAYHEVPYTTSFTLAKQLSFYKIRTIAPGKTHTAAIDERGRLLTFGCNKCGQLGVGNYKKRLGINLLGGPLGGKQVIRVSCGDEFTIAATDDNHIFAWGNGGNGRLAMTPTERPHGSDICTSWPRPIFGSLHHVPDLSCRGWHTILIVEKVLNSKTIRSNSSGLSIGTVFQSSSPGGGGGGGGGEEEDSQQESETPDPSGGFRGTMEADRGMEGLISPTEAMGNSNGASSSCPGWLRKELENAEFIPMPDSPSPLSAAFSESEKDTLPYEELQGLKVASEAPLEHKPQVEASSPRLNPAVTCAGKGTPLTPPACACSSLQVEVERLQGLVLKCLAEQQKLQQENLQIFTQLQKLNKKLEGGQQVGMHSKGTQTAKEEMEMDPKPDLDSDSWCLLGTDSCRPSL

Sequence of Death-associated protein kinase 1 (P53355 whole entry, looked up): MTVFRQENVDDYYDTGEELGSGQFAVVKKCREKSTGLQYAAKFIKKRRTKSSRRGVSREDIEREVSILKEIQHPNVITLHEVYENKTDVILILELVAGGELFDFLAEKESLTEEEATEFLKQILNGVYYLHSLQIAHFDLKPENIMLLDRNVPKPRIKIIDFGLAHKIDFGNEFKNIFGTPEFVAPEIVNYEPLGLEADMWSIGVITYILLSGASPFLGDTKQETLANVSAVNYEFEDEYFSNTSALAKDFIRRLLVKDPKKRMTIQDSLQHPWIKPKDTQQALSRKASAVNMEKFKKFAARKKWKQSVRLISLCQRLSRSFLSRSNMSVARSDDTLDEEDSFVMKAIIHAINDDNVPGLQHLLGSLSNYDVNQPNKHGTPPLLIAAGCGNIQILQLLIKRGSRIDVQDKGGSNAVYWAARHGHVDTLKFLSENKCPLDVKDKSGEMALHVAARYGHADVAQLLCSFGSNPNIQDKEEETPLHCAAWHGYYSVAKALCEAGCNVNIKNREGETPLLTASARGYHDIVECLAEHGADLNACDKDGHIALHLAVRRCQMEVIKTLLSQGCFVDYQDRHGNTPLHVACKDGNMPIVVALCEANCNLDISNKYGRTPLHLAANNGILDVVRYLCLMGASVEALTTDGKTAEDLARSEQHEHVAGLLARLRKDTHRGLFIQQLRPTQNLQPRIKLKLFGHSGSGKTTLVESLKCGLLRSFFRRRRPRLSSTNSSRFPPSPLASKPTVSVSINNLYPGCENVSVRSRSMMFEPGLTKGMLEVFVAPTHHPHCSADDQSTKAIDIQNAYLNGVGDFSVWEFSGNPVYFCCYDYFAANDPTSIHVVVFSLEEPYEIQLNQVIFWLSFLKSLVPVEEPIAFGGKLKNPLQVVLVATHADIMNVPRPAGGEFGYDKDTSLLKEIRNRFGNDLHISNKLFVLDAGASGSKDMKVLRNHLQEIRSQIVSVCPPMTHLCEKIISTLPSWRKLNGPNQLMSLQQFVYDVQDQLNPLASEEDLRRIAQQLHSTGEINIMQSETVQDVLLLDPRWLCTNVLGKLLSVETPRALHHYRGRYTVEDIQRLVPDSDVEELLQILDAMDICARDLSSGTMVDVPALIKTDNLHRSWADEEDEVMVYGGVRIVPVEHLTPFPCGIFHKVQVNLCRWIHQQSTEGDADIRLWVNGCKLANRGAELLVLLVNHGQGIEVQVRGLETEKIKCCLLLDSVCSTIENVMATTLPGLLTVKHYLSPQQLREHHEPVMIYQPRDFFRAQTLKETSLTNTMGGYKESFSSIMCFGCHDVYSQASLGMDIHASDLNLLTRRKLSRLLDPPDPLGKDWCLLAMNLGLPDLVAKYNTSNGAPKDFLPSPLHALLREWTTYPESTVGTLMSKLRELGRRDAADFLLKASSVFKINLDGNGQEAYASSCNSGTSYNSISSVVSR

## CC(=O)Nc1cccc(-n2c(=O)n(C3CC3)c(=O)c3c(Nc4ccc(I)cc4F)n(C)c(=O)c(C)c32)c1
[1]
  % of control: 124%
[2]
  % of control: 109%

## Cc1cnc(Nc2ccc(F)cc2Cl)nc1-c1c[nH]c(C(=O)N[C@H](CO)c2cccc(Cl)c2)c1
[3]
  % of inhibition: 2%

## CC[C@@H]1[C@H](F)C(=O)N[C@@H]1COc1nccc2cc(C(N)=O)c(OC)cc12 [ZIMLOVISERTIB]
[4]
  % of inhibition: -185%
[5]
  % of inhibition: 8.8%

— ChEMBL document CHEMBL5465560, “Selectivity Literature for EUbOPEN Chemogenomic Library” (2024)
